Structures can show the parent of a compound that is named as a salt.
Biological target: T1, human PTH1 receptor (Homo sapiens, UniProt Q03431)
T1 sequence (Q03431 27-593): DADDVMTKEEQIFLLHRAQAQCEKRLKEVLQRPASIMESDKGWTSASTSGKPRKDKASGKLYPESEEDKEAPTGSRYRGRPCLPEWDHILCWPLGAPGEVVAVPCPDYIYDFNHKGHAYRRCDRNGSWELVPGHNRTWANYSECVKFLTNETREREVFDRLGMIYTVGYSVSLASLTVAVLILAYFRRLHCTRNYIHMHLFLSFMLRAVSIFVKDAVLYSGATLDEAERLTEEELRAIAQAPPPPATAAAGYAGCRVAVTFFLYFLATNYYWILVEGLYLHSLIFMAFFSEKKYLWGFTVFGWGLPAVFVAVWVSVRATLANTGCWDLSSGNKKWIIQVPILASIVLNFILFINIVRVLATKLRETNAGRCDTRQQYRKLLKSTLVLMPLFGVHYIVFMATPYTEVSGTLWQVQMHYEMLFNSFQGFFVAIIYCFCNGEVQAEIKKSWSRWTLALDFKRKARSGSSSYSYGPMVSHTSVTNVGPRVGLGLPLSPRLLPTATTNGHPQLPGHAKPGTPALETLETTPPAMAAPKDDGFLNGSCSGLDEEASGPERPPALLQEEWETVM
Test: In vitro cAMP signal activity in HKRK-B7 cells (LLC-PK1 cells overexpressing the human PTH1 receptor)
Type: cell-based
Details: HKRK-B7 cells; compound at 1×10^−3 M; cAMP produced as percentage of that produced by hPTH(1-34) at 100 nM

First: CCCCCCCCCCCC1=NC2(CCN([S@TB17](=O)(=O)CCc3c(C)cc(N(C)C(N)=O)cc3C)CC2)C(=O)N1 [Compound 1141, 1-{3,5-dimethyl-4-[2-(4-oxo-2-undecyl-1,3,8-triaza-spiro[4.5]dec-1-ene-8-sulfonyl)-ethyl]-phenyl}-1-methyl-urea]
Second: Cc1cc(N(C)C(N)=O)cc(C)c1/C=C\S(=O)(=O)N1CCC2(CC1)N=C(CCCCCCCCCF)NC2=O [Compound 1326, 1-(4-{(Z)-2-[2-(9-fluoro-nonyl)-4-oxo-1,3,8-triaza-spiro[4.5]dec-1-ene-8-sulfonyl]-vinyl}-3,5-dimethyl-phenyl)-1-methyl-urea]
The “cAMP production activity (%)” value of the first is lower: 83% for the first, 84% for the second.

First: CN(C)C(=O)c1cccc(C2=NC3(CCN(S(=O)(=O)c4cccc(Cl)c4)CC3)C(=O)N2)c1 [Compound 351, 3-[8-(3-chloro-benzenesulfonyl)-4-oxo-1,3,8-triaza-spiro[4.5]dec-1-en-2-yl]-N,N-dimethyl-benzamide]
Second: Cc1ccccc1C1=NC2(CCN(S(=O)(=O)c3cccc(Cl)c3)CC2)C(=O)N1 [Compound 11, 8-(3-chloro-benzenesulfonyl)-2-o-tolyl-1,3,8-triaza-spiro[4.5]dec-1-en-4-one]
The “cAMP production activity (%)” value of the first is lower: 7.4% for the first, 16% for the second.

Compared with `CC(=O)Nc1ccc(CCS(=O)(=O)N2CCC3(CC2)N=C(C2CCC(CCCF)CC2)NC3=O)c(C)c1` (stereo not shown) [Compound 1064, N-[4-(2-{2-[4-(3-Fluoro-propyl)-cyclohexyl]-4-oxo-1,3,8-triaza-spiro[4.5]dec-1-ene-8-sulfonyl}-ethyl)-3-methyl-phenyl]-acetamide], `CCCCC1CCC(C2=NC3(CCN(S(=O)(=O)CCc4ccc(NC(C)=O)cc4C)CC3)C(=O)N2)CC1` (stereo not shown) [Compound 905, N-(4-{2-[2-(4-butyl-cyclohexyl)-4-oxo-1,3,8-triaza-spiro[4.5]dec-1-ene-8-sulfonyl]-ethyl}-3-methyl-phenyl)-acetamide] is higher in “cAMP production activity (%)” value: 73% for the first, 75% for the second.

Compared with `Cc1cc(OC2CCNCC2)ccc1/C=C/S(=O)(=O)N1CCC2(CC1)N=C(c1cccc(OC(F)(F)F)c1)NC2=O` [Compound 1283, 8-{(E)-2-[2-Methyl-4-(piperidin-4-yloxy)-phenyl]-ethenesulfonyl}-2-(3-trifluoromethoxy-phenyl)-1,3,8-triaza-spiro[4.5]dec-1-en-4-one trifluoroacetate], `CC(=O)N(CCO)c1ccc(/C=C/S(=O)(=O)N2CCC3(CC2)N=C(c2cccc(OC(F)(F)F)c2)NC3=O)c(C)c1` [Compound 232, N-(2-hydroxy-ethyl)-N-(3-methyl-4-{(E)-2-[4-oxo-2-(3-trifluoromethoxy-phenyl)-1,3,8-triaza-spiro[4.5]dec-1-ene-8-sulfonyl]-vinyl}-phenyl)-acetamide] is higher in “cAMP production activity (%)” value: 18% for the first, 69% for the second.

First: Cc1cc(S(=O)(=O)NCC(F)(F)F)ccc1CCS(=O)(=O)N1CCC2(CC1)N=C(c1cccc(C(F)(F)F)c1)NC2=O [Compound 290, 3-methyl-4-{2-[4-oxo-2-(3-trifluoromethyl-phenyl)-1,3,8-triaza-spiro[4.5]dec-1-ene-8-sulfonyl]-ethyl}-N-(2,2,2-trifluoro-ethyl)-benzenesulfonamide]
Second: Cc1cc(C(=O)N2CCN(C(C)C)CC2)ccc1CCS(=O)(=O)N1CCC2(CC1)N=C(c1cccc(OC(F)(F)F)c1)NC2=O [Compound 849, 8-{2-[4-(4-isopropyl-piperazine-1-carbonyl)-2-methyl-phenyl]-ethanesulfonyl}-2-(3-trifluoromethoxy-phenyl)-1,3,8-triaza-spiro[4.5]dec-1-en-4-one]
The “cAMP production activity (%)” value of the first is lower: 76% for the first, 124% for the second.

First: Cc1cc(N2CCN(C(=O)OC(C)(C)C)CC2=O)ccc1/C=C/S(=O)(=O)N1CCC2(CC1)N=C(C1CCC(C)CC1)NC2=O (stereo not shown) [Compound 578, 4-(3-methyl-4-{(E)-2-[2-(4-methyl-cyclohexyl)-4-oxo-1,3,8-triaza-spiro[4.5]dec-1-ene-8-sulfonyl]-vinyl}-phenyl)-3-oxo-piperazine-1-carboxylic acid tert-butyl ester]
Second: Cc1cc(N2C(=O)NC(C)(C)C2=O)ccc1/C=C/S(=O)(=O)N1CCC2(CC1)N=C(C1CCC(CCC(F)(F)F)CC1)NC2=O (stereo not shown) [Compound 540, 5,5-Dimethyl-3-[3-methyl-4-((E)-2-{4-oxo-2-[4-(3,3,3-trifluoro-propyl)-cyclohexyl]-1,3,8-triaza-spiro[4.5]dec-1-ene-8-sulfonyl}-vinyl)-phenyl]-imidazolidine-2,4-dione]
The “cAMP production activity (%)” value of the first is lower: 13% for the first, 22% for the second.

Going from `O=C1NC(C2CCCCC2)=NC12CCN(S(=O)(=O)/C=C/c1ccc(S(=O)(=O)N(CCO)CCO)cc1C(F)(F)F)CC2` [Compound 496, 4-[(E)-2-(2-cyclohexyl-4-oxo-1,3,8-triaza-spiro[4.5]dec-1-ene-8-sulfonyl)-vinyl]-N,N-bis-(2-hydroxy-ethyl)-3-trifluoromethyl-benzenesulfonamide] to `Cc1cc(S(=O)(=O)NCCN(C)C)ccc1/C=C/S(=O)(=O)N1CCC2(CC1)N=C(C1CCCCC1)NC2=O` [Compound 503, 4-[(E)-2-(2-cyclohexyl-4-oxo-1,3,8-triaza-spiro[4.5]dec-1-ene-8-sulfonyl)-vinyl]-N-(2-dimethylamino-ethyl)-3-methyl-benzenesulfonamide], the “cAMP production activity (%)” value rises from 24% to 67%.

First: Cc1cc(C(=O)N(C)N(C)C)cc(C)c1/C=C/S(=O)(=O)N1CCC2(CC1)N=C(C1CCC(CCC(F)(F)F)CC1)NC2=O (stereo not shown) [Compound 629, 3,5-Dimethyl-4-((E)-2-{4-oxo-2-[4-(3,3,3-trifluoro-propyl)-cyclohexyl]-1,3,8-triaza-spiro[4.5]dec-1-ene-8-sulfonyl}-vinyl)-benzoic acid trimethylhydrazide]
Second: Cc1cc(C(=O)N2CC(O)C2)cc(C)c1/C=C/S(=O)(=O)N1CCC2(CC1)N=C(c1cccc(C(F)(F)F)c1)NC2=O [Compound 385, 8-{(E)-2-[4-(3-hydroxy-azetidine-1-carbonyl)-2,6-dimethyl-phenyl]-ethenesulfonyl}-2-(3-trifluoromethyl-phenyl)-1,3,8-triaza-spiro[4.5]dec-1-en-4-one]
The “cAMP production activity (%)” value of the first is lower: 87% for the first, 94% for the second.

Compared with `Cc1cc(C(=O)N2CCC(O)CC2)cc(C)c1CCS(=O)(=O)N1CCC2(CC1)N=C(c1ccc3c(c1)OC(F)(F)O3)NC2=O` [Compound 1333, 2-(2,2-difluoro-benzo[1,3]dioxol-5-yl)-8-{2-[4-(4-hydroxy-piperidine-1-carbonyl)-2,6-dimethyl-phenyl]-ethanesulfonyl}-1,3,8-triaza-spiro[4.5]dec-1-en-4-one], `Cc1cc(C(=O)N2CCC(O)(CF)CC2)cc(C)c1CCS(=O)(=O)N1CCC2(CC1)N=C(c1ccc(OC(F)(F)F)cc1)NC2=O` [Compound 1276, 8-{2-[4-(4-fluoromethyl-4-hydroxy-piperidine-1-carbonyl)-2,6-dimethyl-phenyl]-ethanesulfonyl}-2-(4-trifluoromethoxy-phenyl)-1,3,8-triaza-spiro[4.5]dec-1-en-4-one] is higher in “cAMP production activity (%)” value: 109% for the first, 140% for the second.

Going from `Cc1cc(CC(=O)N(C)C)ccc1CCS(=O)(=O)N1CCC2(CC1)N=C(C1CCC(C)CC1)NC2=O` (stereo not shown) [Compound 1387, N,N-dimethyl-2-(3-methyl-4-{2-[2-(4-methyl-cyclohexyl)-4-oxo-1,3,8-triaza-spiro[4.5]dec-1-ene-8-sulfonyl]-ethyl}-phenyl)-acetamide] to `Cc1cc(N(C)C(N)=O)cc(C)c1CCS(=O)(=O)N1CCC2(CC1)N=C(C1CCCCCC1)NC2=O` [Compound 934, 1-{4-[2-(2-Cycloheptyl-4-oxo-1,3,8-triaza-spiro[4.5]dec-1-ene-8-sulfonyl)-ethyl]-3,5-dimethyl-phenyl}-1-methyl-urea], the “cAMP production activity (%)” value rises from 68% to 87%.

First: Cc1cc(C(=O)N(C)C)ccc1CCS(=O)(=O)N1CCC2(CC1)N=C(c1cccc(OC(F)(F)F)c1)N=C2NCC1CCCCC1 [Compound 898, 4-{2-[4-(cyclohexylmethyl-amino)-2-(3-trifluoromethoxy-phenyl)-1,3,8-triaza-spiro[4.5]deca-1,3-diene-8-sulfonyl]-ethyl}-3,N,N-trimethyl-benzamide]
Second: CC(=O)Nc1ccc(CCS(=O)(=O)N2CCC3(CC2)N=C(C2CCCCC2)NC3=O)c(C#N)c1 [Compound 652, N-{3-cyano-4-[2-(2-cyclohexyl-4-oxo-1,3,8-triaza-spiro[4.5]dec-1-ene-8-sulfonyl)-ethyl]-phenyl}-acetamide]
The “cAMP production activity (%)” value of the first is lower: 4.3% for the first, 63% for the second.

Compared with `CC(C)(C)CCN1CCCC(C2=NC3(CCN(S(=O)(=O)c4cccc(Cl)c4)CC3)C(=O)N2)C1` (stereo not shown) [Compound 453, 8-(3-Chloro-benzenesulfonyl)-2-[1-(3,3-dimethyl-butyl)-piperidin-3-yl]-1,3,8-triaza-spiro[4.5]dec-1-en-4-one], `COC(=O)NCCc1ccc(/C=C/S(=O)(=O)N2CCC3(CC2)N=C(C2CCCCC2)NC3=O)cc1` [Compound 566, (2-{4-[(E)-2-(2-cyclohexyl-4-oxo-1,3,8-triaza-spiro[4.5]dec-1-ene-8-sulfonyl)-vinyl]-phenyl}-ethyl)-carbamic acid methyl ester] is higher in “cAMP production activity (%)” value: 16% for the first, 19% for the second.

In the case of `CC1(C)OCC(Cn2ccc3c(/C=C/S(=O)(=O)N4CCC5(CC4)N=C(C4CCOCC4)NC5=O)cccc32)O1` (stereo not shown) [Compound 246, 8-{(E)-2-[1-(2,2-dimethyl-[1,3]dioxolan-4-ylmethyl)-1H-indol-4-yl]-ethenesulfonyl}-2-(tetrahydro-pyran-4-yl)-1,3,8-triaza-spiro[4.5]dec-1-en-4-one], the “cAMP production activity (%)” value is reported as 39%.

From patent US9169254B2, “Spiroimidazolone derivative” (Chugai Seiyaku Kabushiki Kaisha, priority 2009, dated 2015)
